Key:
persian speedwell = assay: Test Example 5: herbicidal effect by foliage application, plastic box (Table 20, symbol R); assay type: in vivo, Persian speedwell (Veronica persica); details: foliage application, 320 g/ha, three weeks after application
Summary of the method: (§1)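 Sow seeds spot-wise in sterilized diluvial soil; cover with ~1.5 cm soil. Grow 14 days in greenhouse, 25° C. to 30° C. Spray foliage with emulsion diluted to predetermined amount. Rate effect after 3 weeks.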

southern crabgrass = assay: Test Example 5: herbicidal effect by foliage application, plastic box (Table 20, symbol F); assay type: in vivo, southern crabgrass (Digitaria ciliaris); details: foliage application, 320 g/ha, three weeks after application
Summary of the method: as §1

Chinese sprangletop = assay: Test Example 3: herbicidal effect by foliage application, Wagner pot (Table 18, symbol D); assay type: in vivo, chinese sprangletop (Leptochloa chinensis); details: 320 g/ha
Summary of the method: (§2)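 Plants were sown in alluvial soil held under 0.1–0.5 cm standing water and grown 14 days in a greenhouse at 25–30 °C. An emulsifiable formulation, water-diluted to the set dose, was then sprayed onto the foliage, and effects were scored three weeks later using previously defined criteria.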

wild oat = assay: Test Example 5: herbicidal effect by foliage application, plastic box (Table 20, symbol I); assay type: in vivo, wild oat (Avena fatua); details: foliage application, 320 g/ha, three weeks after application
Summary of the method: as §1

rice flat sedge = assay: Test Example 3: herbicidal effect by foliage application, Wagner pot (Table 18, symbol E); assay type: in vivo, rice flat sedge (Cyperus iria); details: 320 g/ha
Summary of the method: as §2

lambsquarters = assay: Test Example 5: herbicidal effect by foliage application, plastic box (Table 20, symbol O); assay type: in vivo, lambsquarters (Chenopodium album); details: foliage application, 320 g/ha, three weeks after application
Summary of the method: as §1

blackgrass = assay: Test Example 5: herbicidal effect by foliage application, plastic box (Table 20, symbol J); assay type: in vivo, blackgrass (Alopecurus myosuroides); details: foliage application, 320 g/ha, three weeks after application
Summary of the method: as §1

green foxtail = assay: Test Example 5: herbicidal effect by foliage application, plastic box (Table 20, symbol G); assay type: in vivo, green foxtail (Setaria viridis); details: foliage application, 320 g/ha, three weeks after application
Summary of the method: as §1

false cleavers = assay: Test Example 5: herbicidal effect by foliage application, plastic box (Table 20, symbol Q); assay type: in vivo, false cleavers (Galium spurium); details: foliage application, 320 g/ha, three weeks after application
Source text: [Test Example 5] Herbicidal Effect Test by Foliage Application
Sterilized diluvial soil was placed in a plastic box having a length of 21 cm, a width of 13 cm, and a depth of 7 cm. The seeds of each of southern crabgrass, green foxtail, barnyard grass, wild oat, blackgrass, Italian ryegrass, windgrass, velvetleaf, redroot pigweed, lambsquarters, chickweed, false cleavers, persian speedwell, corn, soybean, rice, wheat, beet, and rapeseed were sowed in a spot-like manner and covered with the soil having a thickness of about 1.5 cm. Thereafter, the plants were grown in a greenhouse at 25° C. to 30° C. After 14-day growth of the plants, the emulsion agent of the compound of the present invention prepared according to Formulation Example 2 was diluted with water so as to achieve a predetermined herbicide amount, and the diluted emulsion agent was uniformly applied to a foliage part with a small-sized spray. Three weeks after the herbicide application, the effect of the herbicide on each plant was evaluated according to the criteria of Test Example 1.

Italian ryegrass = assay: Test Example 5: herbicidal effect by foliage application, plastic box (Table 20, symbol K); assay type: in vivo, Italian ryegrass (Lolium multiflorum); details: foliage application, 320 g/ha, three weeks after application
Summary of the method: as §1

velvetleaf = assay: Test Example 5: herbicidal effect by foliage application, plastic box (Table 20, symbol M); assay type: in vivo, velvetleaf (Abutilon theophrasti); details: foliage application, 320 g/ha, three weeks after application
Summary of the method: as §1

windgrass = assay: Test Example 5: herbicidal effect by foliage application, plastic box (Table 20, symbol L); assay type: in vivo, windgrass (Apera spica-venti); details: foliage application, 320 g/ha, three weeks after application
Summary of the method: as §1

chickweed = assay: Test Example 5: herbicidal effect by foliage application, plastic box (Table 20, symbol P); assay type: in vivo, common chickweed (Stellaria media); details: foliage application, 320 g/ha, three weeks after application
Summary of the method: as §1

barnyard grass [1] = assay: Test Example 5: herbicidal effect by foliage application, plastic box (Table 20, symbol H); assay type: in vivo, barnyard grass (Echinochloa crus-galli); details: foliage application, 320 g/ha, three weeks after application
Summary of the method: as §1

redroot pigweed = assay: Test Example 5: herbicidal effect by foliage application, plastic box (Table 20, symbol N); assay type: in vivo, redroot pigweed (Amaranthus retroflexus); details: foliage application, 320 g/ha, three weeks after application
Summary of the method: as §1

barnyard grass [2] = assay: Test Example 3: herbicidal effect by foliage application, Wagner pot (Table 18, symbol H); assay type: in vivo, barnyard grass (Echinochloa crus-galli); details: 320 g/ha
Summary of the method: as §2

| SMILES | herbicidal effect grade, R: persian speedwell (persian speedwell) | herbicidal effect grade, F: southern crabgrass (southern crabgrass) | herbicidal effect on D (Chinese sprangletop), rating 0-5 (Chinese sprangletop) | herbicidal effect grade, I: wild oat (wild oat) | herbicidal effect on E (rice flat sedge), rating 0-5 (rice flat sedge) | herbicidal effect grade, O: lambsquarters (lambsquarters) | herbicidal effect grade, J: blackgrass (blackgrass) | herbicidal effect grade, G: green foxtail (green foxtail) | herbicidal effect grade, Q: false cleavers (false cleavers) | herbicidal effect grade, K: Italian ryegrass (Italian ryegrass) | herbicidal effect grade, M: velvetleaf (velvetleaf) | herbicidal effect grade, L: windgrass (windgrass) | herbicidal effect grade, P: chickweed (chickweed) | herbicidal effect grade, H: barnyard grass (barnyard grass [1]) | herbicidal effect grade, N: redroot pigweed (redroot pigweed) | herbicidal effect on H (barnyard grass), rating 0-5 (barnyard grass [2]) |
| --- | --- | --- | --- | --- | --- | --- | --- | --- | --- | --- | --- | --- | --- | --- | --- | --- |
| Cc1nn(C)c(=O)c(-c2c(-c3ccccc3O)sc3ccccc23)c1O [1-009] | 4 (Herbicidal rate of 70% or more and less than 90%) | 3 (Herbicidal rate of 40% or more and less than 70%) | 2 (Herbicidal rate of 20% or more and less than 40%) | 0 (Herbicidal rate of 5% or less (almost no effect)) | 2 (Herbicidal rate of 20% or more and less than 40%) | 0 (Herbicidal rate of 5% or less (almost no effect)) | 0 (Herbicidal rate of 5% or less (almost no effect)) | 3 (Herbicidal rate of 40% or more and less than 70%) | 0 (Herbicidal rate of 5% or less (almost no effect)) | 0 (Herbicidal rate of 5% or less (almost no effect)) | 0 (Herbicidal rate of 5% or less (almost no effect)) | 0 (Herbicidal rate of 5% or less (almost no effect)) | 4 (Herbicidal rate of 70% or more and less than 90%) | 2 (Herbicidal rate of 20% or more and less than 40%) | 0 (Herbicidal rate of 5% or less (almost no effect)) | 3 (Herbicidal rate of 40% or more and less than 70%) |
| Cc1nn(C)c(=O)c(-c2c(-c3ccccc3Oc3ccccc3)sc3ccccc23)c1O [1-033] | 3 (Herbicidal rate of 40% or more and less than 70%) | 3 (Herbicidal rate of 40% or more and less than 70%) | 0 (Herbicidal rate of 5% or less (almost no effect)) | 0 (Herbicidal rate of 5% or less (almost no effect)) | 1 (Herbicidal rate of 5% or more and less than 20%) | 0 (Herbicidal rate of 5% or less (almost no effect)) | 0 (Herbicidal rate of 5% or less (almost no effect)) | 0 (Herbicidal rate of 5% or less (almost no effect)) | 4 (Herbicidal rate of 70% or more and less than 90%) | 0 (Herbicidal rate of 5% or less (almost no effect)) | 0 (Herbicidal rate of 5% or less (almost no effect)) | 0 (Herbicidal rate of 5% or less (almost no effect)) | 1 (Herbicidal rate of 5% or more and less than 20%) | 2 (Herbicidal rate of 20% or more and less than 40%) | 0 (Herbicidal rate of 5% or less (almost no effect)) | 1 (Herbicidal rate of 5% or more and less than 20%) |
